29 compounds from patent US8431593B2, “Heteroaryl amide derivatives” (H. Lundbeck A/S, priority 2006, dated 2013) can be followed below.

What is called IC50 is the concentration at which inhibition is half-maximal.

Molecules are shown by their SMILES.

For one experiment, the target named is T1, P2X7 receptor (Homo sapiens, UniProt Q99572).
T1 construct: host or cells: SH-SY5Y
T1 sequence (Q99572 1-595): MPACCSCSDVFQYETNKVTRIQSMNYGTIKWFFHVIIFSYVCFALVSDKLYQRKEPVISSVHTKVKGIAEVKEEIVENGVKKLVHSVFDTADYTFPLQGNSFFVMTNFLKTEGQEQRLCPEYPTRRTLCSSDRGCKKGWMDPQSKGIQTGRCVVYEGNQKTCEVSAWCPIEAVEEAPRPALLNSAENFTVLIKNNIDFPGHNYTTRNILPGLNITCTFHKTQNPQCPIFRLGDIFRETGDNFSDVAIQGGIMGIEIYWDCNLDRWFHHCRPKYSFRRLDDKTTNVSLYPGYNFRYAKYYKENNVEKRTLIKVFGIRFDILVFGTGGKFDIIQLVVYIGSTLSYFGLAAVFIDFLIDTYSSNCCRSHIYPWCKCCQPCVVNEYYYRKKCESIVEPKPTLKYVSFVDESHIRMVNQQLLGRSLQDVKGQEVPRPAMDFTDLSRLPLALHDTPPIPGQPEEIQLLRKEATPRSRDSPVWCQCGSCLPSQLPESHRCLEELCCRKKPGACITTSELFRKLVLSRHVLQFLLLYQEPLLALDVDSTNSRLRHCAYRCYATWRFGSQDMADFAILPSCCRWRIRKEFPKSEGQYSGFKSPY
Briefly: P2X7 calcium mobilization assay, high throughput, antagonist activity (Example 4A). The experiment is classed as cell-based.
Conditions: not given
In short, it runs like this:
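Cells plated 100,000/well the day before; after 1 h dye loading and one rinse, cells were preincubated 1 h at room temperature with test compound. Calcium mobilization then read on FLIPR^TETRA; maximum RFU corrected by subtracting mean no-agonist response and referenced to mean agonist-control maximum.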
On the technique in general: Calcium flux is commonly read through the fluorescence of an indicator in the cells.
In the case of `O=C(NCC12CC3CC(CC(C3)C1)C2)c1cccc2nc(CC(=O)N3CCC4(CC3)OCCO4)cn12` [Compound 187, N-(adamantan-1-ylmethyl)-2-[2-(1,4-dioxa-8-azaspiro[4.5]dec-8-yl)-2-oxoethyl]imidazo[1,2-a]pyridine-5-carboxamide], the half-inhibitory concentration (IC50) is below 2 µM.

The experiment is the same for the next values; noted with them: SH-SY5Y cells; 50% decrease in fluorescence response to 80 μM BzATP; read-out: IC50.
With `CCCOCCNC(=O)Cc1cn2c(C(=O)NCC34CC5CC(CC(C5)C3)C4)cccc2n1` [Compound 159, N-(adamantan-1-ylmethyl)-2-{2-oxo-2-[(2-propoxyethyl)amino]eth-yl}imidazo[1,2-a]pyridine-5-carboxamide], the 50% inhibitory concentration (IC50) is below 2 µM.

On to `CCC(COC)NC(=O)Cc1cn2c(C(=O)NCC34CC5CC(CC(C5)C3)C4)cccc2n1` (centres unmarked) [Compound 160, N-(adamantan-1-ylmethyl)-2-(2-{[1-(methoxymethyl)pro-pyl]amino}-2-oxoethyl)imidazo[1,2-a]pyridine-5-carboxamide], for which the half-inhibitory concentration (IC50) is below 2 µM.

As for `NC(=O)[C@H]1CCC[C@H]1NC(=O)Cc1cn2c(C(=O)NCC34CC5CC(CC(C5)C3)C4)cccc2n1` [Compound 161, N-(adamantan-1-ylmethyl)-2-(2-{[(1R,2S)-2-carbamoylcyclo-pentyl]amino}-2-oxoethyl)imidazo[1,2-a]pyridine-5-carboxamide], the 50% inhibitory concentration (IC50) was below 2 µM.

For `O=C(Cc1cn2c(C(=O)NCC34CC5CC(CC(C5)C3)C4)cccc2n1)NN1CCOCC1` [Compound 162, N-(adamantan-1-ylmethyl)-2-[2-(morpholin-4-ylamino)-2-oxoethyl]imidazo[1,2-a]pyridine-5-carboxamide], the IC50 was below 2 µM.

`O=C(Cc1cn2c(C(=O)NCC34CC5CC(CC(C5)C3)C4)cccc2n1)NN1CCCCCC1` [Compound 163, N-(adamantan-1-ylmethyl)-2-[2-(azepan-1-ylamino)-2-oxoethyl]imidazo[1,2-a]pyridine-5-carboxamide]: the IC50 was below 2 µM.

Consider `CC(C)N1CCN(C(=O)Cc2cn3c(C(=O)NCC45CC6CC(CC(C6)C4)C5)cccc3n2)CC1` [Compound 164, N-(adamantan-1-ylmethyl)-2-[2-(4-isopropylpiperazin-1-yl)-2-oxoethyl]imidazo[1,2-a]pyridine-5-carboxamide], for which the IC50 is below 2 µM.

`CN(C)C(=O)Cc1cn2c(C(=O)NCC34CC5CC(CC(C5)C3)C4)cccc2n1` [Compound 165, N-(adamantan-1-ylmethyl)-2-[2-(dimethylamino)-2-oxoethyl]imidazo[1,2-a]pyridine-5-carboxamide]: the IC50 was below 2 µM.

Take `CC(=O)N1CCN(C(=O)Cc2cn3c(C(=O)NCC45CC6CC(CC(C6)C4)C5)cccc3n2)CC1` [Compound 166, 2-[2-(4-acetylpiperazin-1-yl)-2-oxoethyl]-N-(adamantan-1-ylmethyl)imidazo[1,2-a]pyridine-5-carboxamide]: the IC50 was below 2 µM.

Turning to `O=CN1CCN(C(=O)Cc2cn3c(C(=O)NCC45CC6CC(CC(C6)C4)C5)cccc3n2)CC1` [Compound 167, N-(adamantan-1-ylmethyl)-2-[2-(4-formylpiperazin-1-yl)-2-oxoethyl]imidazo[1,2-a]pyridine-5-carboxamide], the IC50 is below 2 µM.

Take `CCN(C)C(=O)Cc1cn2c(C(=O)NCC34CC5CC(CC(C5)C3)C4)cccc2n1` [Compound 168, N-(adamantan-1-ylmethyl)-2-{2-[ethyl(methyl)amino]-2-oxoethyl}imidazo[1,2-a]pyridine-5-carboxamide]: the 50% inhibitory concentration (IC50) is below 2 µM.

On to `CCN1CCN(C(=O)Cc2cn3c(C(=O)NCC45CC6CC(CC(C6)C4)C5)cccc3n2)CC1` [Compound 169, N-(adamantan-1-ylmethyl)-2-[2-(4-ethylpiperazin-1-yl)-2-oxoethyl]imidazo[1,2-a]pyridine-5-carboxamide], for which the IC50 is below 2 µM.

As to `CC(=O)NC1CCN(C(=O)Cc2cn3c(C(=O)NCC45CC6CC(CC(C6)C4)C5)cccc3n2)C1` (centres unmarked) [Compound 170, 2-[2-(3-acetamidopyrrolidin-1-yl)-2-oxoethyl]-N-(adamantan-1-ylmethyl)imidazo[1,2-a]pyridine-5-carboxamide], the IC50 is below 2 µM.

As for `COC[C@@H]1CCCN1C(=O)Cc1cn2c(C(=O)NCC34CC5CC(CC(C5)C3)C4)cccc2n1` [Compound 171, N-(adamantan-1-ylmethyl)-2-{2-[(2S)-2-(methoxymethyl)pyrrolidin-1-yl]-2-oxoethyl}imidazo[1,2-a]pyridine-5-carboxamide], the IC50 is below 2 µM.

Consider `COC[C@H]1CCCN1C(=O)Cc1cn2c(C(=O)NCC34CC5CC(CC(C5)C3)C4)cccc2n1` [Compound 172, N-(adamantan-1-ylmethyl)-2-{2-[(2R)-2-(methoxymethyl)pyrrolidin-1-yl]-2-oxoethyl}imidazo[1,2-a]pyridine-5-carboxamide], for which the IC50 is below 2 µM.

`CC(C)CN(C)C(=O)Cc1cn2c(C(=O)NCC34CC5CC(CC(C5)C3)C4)cccc2n1` [Compound 173, N-(adamantan-1-ylmethyl)-2-{2-[isobutyl(methyl)amino]-2-oxoethyl}imidazo[1,2-a]pyridine-5-carboxamide]: the IC50 is below 2 µM.

In the case of `O=C(NCC12CC3CC(CC(C3)C1)C2)c1cccc2nc(CC(=O)N3CCCC(C(F)(F)F)C3)cn12` (centres unmarked) [Compound 174, N-(adamantan-1-ylmethyl)-2-{2-oxo-2-[3-(trifluoromethyl)piperidin-1-yl]ethyl}imidazo[1,2-a]pyridine-5-carboxamide], the IC50 is below 2 µM.

As for `CO[C@H]1CCN(C(=O)Cc2cn3c(C(=O)NCC45CC6CC(CC(C6)C4)C5)cccc3n2)C1` [Compound 175, N-(adamantan-1-ylmethyl)-2-{2-[(3S)-3-methoxypyrrolidin-1-yl]-2-oxoethyl}imidazo[1,2-a]pyridine-5-carboxamide], the IC50 is below 2 µM.

Regarding `COCC1CCCN(C(=O)Cc2cn3c(C(=O)NCC45CC6CC(CC(C6)C4)C5)cccc3n2)C1` (centres unmarked) [Compound 176, N-(adamantan-1-ylmethyl)-2-{2-[3-(methoxymethyl)piperidin-1-yl]-2-oxoethyl}imidazo[1,2-a]pyridine-5-carboxamide], the IC50 is below 2 µM.

On to `COCC1CCCCN1C(=O)Cc1cn2c(C(=O)NCC34CC5CC(CC(C5)C3)C4)cccc2n1` (centres unmarked) [Compound 177, N-(adamantan-1-ylmethyl)-2-{2-[2-(methoxymethyl)piperidin-1-yl]-2-oxoethyl}imidazo[1,2-a]pyridine-5-carboxamide], for which the IC50 is below 2 µM.

Take `COCCC1CCCN(C(=O)Cc2cn3c(C(=O)NCC45CC6CC(CC(C6)C4)C5)cccc3n2)C1` (centres unmarked) [Compound 178, N-(adamantan-1-ylmethyl)-2-{2-[3-(2-methoxyethyl)piperidin-1-yl]-2-oxoethyl}imidazo[1,2-a]pyridine-5-carboxamide]: the half-maximal inhibitory concentration (IC50) was below 2 µM.

In the case of `O=C(NCC12CC3CC(CC(C3)C1)C2)c1cccc2nc(CC(=O)N3CCN(C4CCC4)CC3)cn12` [Compound 179, N-(adamantan-1-ylmethyl)-2-[2-(4-cyclobutylpiperazin-1-yl)-2-oxoethyl]imidazo[1,2-a]pyridine-5-carboxamide], the IC50 is below 2 µM.

As for `O=C(NCC12CC3CC(CC(C3)C1)C2)c1cccc2nc(CC(=O)N3CCCC3)cn12` [Compound 180, N-(adamantan-1-ylmethyl)-2-(2-oxo-2-pyrrolidin-1-ylethyl)imidazo[1,2-a]pyridine-5-carboxamide], the IC50 is below 2 µM.

As for `O=C(NCC12CC3CC(CC(C3)C1)C2)c1cccc2nc(CC(=O)N3CCCCC3)cn12` [Compound 181, N-(adamantan-1-ylmethyl)-2-(2-oxo-2-piperidin-1-ylethyl)imidazo[1,2-a]pyridine-5-carboxamide], the concentration for half-maximal inhibition (IC50) is below 2 µM.

As to `O=C(NCC12CC3CC(CC(C3)C1)C2)c1cccc2nc(CC(=O)N3CCOCC3)cn12` [Compound 182, N-(adamantan-1-ylmethyl)-2-(2-morpholin-4-yl-2-oxoethyl)imidazo[1,2-a]pyridine-5-carboxamide], the IC50 was below 2 µM.

As for `CCC(=O)NC1CCN(C(=O)Cc2cn3c(C(=O)NCC45CC6CC(CC(C6)C4)C5)cccc3n2)CC1` [Compound 183, N-(adamantan-1-ylmethyl)-2-{2-oxo-2-[4-(propionylamino)piperidin-1-yl]ethyl}imidazo[1,2-a]pyridine-5-carboxamide], the IC50 was below 2 µM.

Take `CC(C)C(=O)NC1CCN(C(=O)Cc2cn3c(C(=O)NCC45CC6CC(CC(C6)C4)C5)cccc3n2)CC1` [Compound 184, N-(adamantan-1-ylmethyl)-2-{2-[4-(isobutyrylamino)piperidin-1-yl]-2-oxoethyl}imidazo[1,2-a]pyridine-5-carboxamide]: the half-inhibitory concentration (IC50) is below 2 µM.

Consider `CC1(C)CCCN(C(=O)Cc2cn3c(C(=O)NCC45CC6CC(CC(C6)C4)C5)cccc3n2)C1` [Compound 185, N-(adamantan-1-ylmethyl)-2-[2-(3,3-dimethylpiperidin-1-yl)-2-oxoethyl]imidazo[1,2-a]pyridine-5-carboxamide], for which the concentration for half-maximal inhibition (IC50) is below 2 µM.

As for `CCCN(C)C(=O)Cc1cn2c(C(=O)NCC34CC5CC(CC(C5)C3)C4)cccc2n1` [Compound 186, N-(adamantan-1-ylmethyl)-2-{2-[methyl(propyl)amino]-2-oxoethyl}imidazo[1,2-a]pyridine-5-carboxamide], the half-inhibitory concentration (IC50) was below 2 µM.
